Assay results from article PMC10661773, “Cytotoxic pathways activated by multifunctional thiosemicarbazones targeting sigma-2 receptors in breast and lung carcinoma cells” (Pharmacological Reports, 2023).
Like-named read-outs stand apart in the source and are kept apart here.

Experiments:
MCF7 cells [1] = test: Mitochondrial depolarization, JC-1 staining; assay type: cell-based, human; conditions: MCF7, 2 h, 50 µM
Description: (§1) Staining with the JC-1 fluorescent probe (Biotium Inc., Freemont, CA; #30,001-30001-T) was performed as described in Riganti et al. 2015 [21]. Fluorescence units were used to calculate the percentage of green-fluorescent (i.e., depolarized) mitochondria vs red-fluorescent (i.e., polarized) mitochondria.

A549 cells [2] = test: Mitochondrial depolarization, JC-1 staining; assay type: cell-based, human; conditions: A549, 2 h, 50 µM
Description: as §1

caspase 9 in MCF7 cells = test: Caspase 9 activity, fluorimetric; assay type: cell-based, human; conditions: MCF7, 2 h, 50 µM
Description: Activation of caspase 3, caspase 7 and caspase 9 was measured using the Caspase 3/7 Fluorescence Assay kit (Cayman Chemical, Ann Arbor, MI; #10,009,135) and the Caspase 9 fluorimetric assay kit (Enzo Life Science, Roma, Italy; #ALX-850-224). The results were expressed as nmoles of the hydrolyzed substrate of each caspase/mg cellular proteins, according to a previously set titration curve.

MCF7 [3] = tested on: MCF7; design: method as in doi:10.1039/C5RA19857G; conditions: MTT; read-out: EC50, tumor cells MCF7; cited from earlier work
sigma-2 receptors = sigma-2 receptors (Homo sapiens, UniProt Q5BJF2); conditions: read-out: Sigma-2 Affinity Ki; cited from earlier work
MCF7 cells [4] = test: Mitochondrial ROS, MitoSOX staining; assay type: cell-based, human; conditions: MCF7, 2 h, 50 µM
Description: (§2) Intramitochondrial reactive oxygen species (ROS) were measured using the MitoSOX fluorescent probe (Invitrogen ThermoScientific, # M36008), according to the manufacturer’s instructions. For total ROS, cells were incubated with 5 µmol/L of 5-(and-6)-chlorometyl-20,70-dichlorodihydro-fluorescein diacetate-acetoxymethyl ester (DCFDA-AM, Sigma, #21,884), as described by Riganti et al. 2015 [21]. The results are expressed as nmoles/mg mitochondrial or cellular proteins, respectively.

A549 cells [5] = test: Mitochondrial ROS, MitoSOX staining; assay type: cell-based, human; conditions: A549, 2 h, 50 µM
Description: as §2

MCF7 and A549 cells = test: Whole cell ROS, DCFDA-AM probe; assay type: cell-based, human; conditions: MCF7 and A549, 2 h, 50 µM
Description: as §2

[6] = tested on: GRP78, ATF6, IRE1, PERK in MCF7 cells; test: ER stress markers, qRT-PCR and immunoblotting; assay type: cell-based, human; conditions: MCF7, 2 h, 50 µM
Description: 1 μg total RNA was reverse-transcribed using the iScript Reverse Transcription Supermix kit (Bio-Rad Laboratories, Hercules, CA; #1,708,840), according to the manufacturer’s instruction. 25 ng cDNA were amplified with 10 μL IQ™ SYBR Green Supermix (Bio-Rad Laboratories, # 1708880B05). Primers were designed with the qPrimer Depot software (http://primerdepot.nci.nih.gov/). qRT-PCR was carried out with a CFX96™ Real-Time Detector System (Bio-Rad Laboratories). Cycling conditions were: 30 s at 95 °C, followed by 40 cycles of denaturation (15 s at 95 °C), annealing/extension (30 s at 60 °C). The same cDNA preparation was used to quantify the genes of interest and the housekeeping gene S14, used to normalize gene expression. The relative quantitation of each sample was carried out using the Gene Expression Quantitation software (Bio-Rad Laboratories). Results were expressed in arbitrary units. For each gene, the expression in untreated cells was assumed to be “1”.
Cells were rinsed with ice-cold lysis buffer (50 mM, Tris, 10 mM EDTA, 1% v/v Triton-X100), supplemented with the protease inhibitor cocktail set III (80 μM aprotinin, 5 mM bestatin, 1.5 mM leupeptin, 1 mM pepstatin; Sigma, # 535,140), 2 mM phenylmethylsulfonyl fluoride (Sigma: #P7626) and 1 mM Na3VO4, (Sigma; #S6508) then sonicated and centrifuged at 13,000 × g for 10 min at 4 °C. 20 μg protein extracts were subjected to SDS–PAGE and probed with the antibodies for: GRP78 (#ab21685), ATF6 (#ab122897), IRE-1 (#ab37073), PERK (#ab65142), actin (#ab1801) (all from Abcam, Cambridge, UK), followed by a peroxidase-conjugated secondary antibody (Bio-Rad Laboratories). The membranes were washed with Tris-buffered saline-Tween 0.1% v/v solution, and the proteins were detected by enhanced chemiluminescence (Bio-Rad Laboratories, #1,705,061). The densitometric analysis was performed using the ImageJ software (https://imagej.nih.gov/), calculating the ratio protein of interest/actin band density, putting actin band density as 1 relative unit in each condition. Densitometric analysis and whole blots are included as Supporting Information.

MCF10A = test: Cell viability, MTT assay at 48 h; assay type: cell-based; conditions: Homo sapiens, MCF-10A, read-out: EC50 ± SEM, normal cells MCF10A
Description: (§3) Human MCF7 breast adenocarcinoma (#HTB-22) and human A549 carcinoma (#CCL-85) cell lines, non-tumor human breast (MCF10A, #CRL-10317) and lung (BEAS-2B, #CRL-9482) cells were obtained from American Type Culture Collection (ATCC, Bethesda, MD). MCF7 cells were cultured in DMEM medium (Gibco Thermo Scientific, Waltham, MA; #10,565,018), A549 in HAM’s F12 medium (Gibco Thermo Scientific; #11,765,054), and BEAS-2B in RPMI-1640 medium (Gibco Thermo Scientific; # 61,870,010), all supplemented with 10% v/v fetal bovine serum (FBS; Sigma, St. Louis, MO; #F4135) and 1% v/v penicillin–streptomycin (Sigma; #P4458). MCF10A cells were cultured in DMEM/F12 medium (Gibco Thermo Scientific; #31,331,028) supplemented with 5% v/v horse serum (Sigma; #H1270) and 1% v/v penicillin–streptomycin, 20 ng/mL epidermal growth factor (Sigma, #E4127), 10 µg/mL insulin (Sigma, #I3536), […] hydrocortisone (Sigma, #H0888), 100 ng/mL cholera toxin (Sigma, #C8052). Cells were kept in a humidified incubator at 37 °C with 5% CO2.
(§4) Cell growth was determined using the MTT assay at 48 h. On day 1, 25,000 cells/well were seeded into 96-well plates in a volume of 100 μL. On day 2, the various drug concentrations (1 μM–100 μM) were added. In all experiments, the various drug solvents (EtOH, Sigma, # E7148; DMSO, Sigma, # D8418) were added to each control to evaluate possible cytotoxicity of the solvent. After the established incubation time with drugs (48 h), MTT (0.5 mg/mL, Sigma # M2003) was added to each well, and after 3–4 h incubation at 37 °C, the supernatant was removed. Formazan crystals were solubilized using 100 μl of DMSO/EtOH (1:1) and absorbance values at 570 and 630 nm were determined on the microplate reader Victor 3 from PerkinElmer Life Sciences (Waltham, MA).

BEAS-2B = test: Cell viability, MTT assay at 48 h; assay type: cell-based; conditions: Homo sapiens, read-out: EC50 ± SEM, normal cells BEAS-2B
Description: as §3, §4

P-gp = target: T1, P-gp (Homo sapiens, UniProt P08183); conditions: cited from earlier work
T1 construct: expressed in transfected cells; host or cells: MDCK-MDR1

A549 [7] = tested on: A549; design: method as in doi:10.1039/C5RA19857G; conditions: MTT; read-out: EC50, tumor cells A549; cited from earlier work
A549 [8] = test: Cell viability, MTT assay at 48 h; assay type: cell-based; conditions: Homo sapiens, A549, 48 h, read-out: EC50 ± SEM, tumor cells A549
Description: as §3, §4

MCF7 [9] = test: Cell viability, MTT assay at 48 h; assay type: cell-based; conditions: Homo sapiens, MCF7, 48 h, read-out: EC50 ± SEM, tumor cells MCF7
Description: as §3, §4

T1 sequence (P08183 whole entry): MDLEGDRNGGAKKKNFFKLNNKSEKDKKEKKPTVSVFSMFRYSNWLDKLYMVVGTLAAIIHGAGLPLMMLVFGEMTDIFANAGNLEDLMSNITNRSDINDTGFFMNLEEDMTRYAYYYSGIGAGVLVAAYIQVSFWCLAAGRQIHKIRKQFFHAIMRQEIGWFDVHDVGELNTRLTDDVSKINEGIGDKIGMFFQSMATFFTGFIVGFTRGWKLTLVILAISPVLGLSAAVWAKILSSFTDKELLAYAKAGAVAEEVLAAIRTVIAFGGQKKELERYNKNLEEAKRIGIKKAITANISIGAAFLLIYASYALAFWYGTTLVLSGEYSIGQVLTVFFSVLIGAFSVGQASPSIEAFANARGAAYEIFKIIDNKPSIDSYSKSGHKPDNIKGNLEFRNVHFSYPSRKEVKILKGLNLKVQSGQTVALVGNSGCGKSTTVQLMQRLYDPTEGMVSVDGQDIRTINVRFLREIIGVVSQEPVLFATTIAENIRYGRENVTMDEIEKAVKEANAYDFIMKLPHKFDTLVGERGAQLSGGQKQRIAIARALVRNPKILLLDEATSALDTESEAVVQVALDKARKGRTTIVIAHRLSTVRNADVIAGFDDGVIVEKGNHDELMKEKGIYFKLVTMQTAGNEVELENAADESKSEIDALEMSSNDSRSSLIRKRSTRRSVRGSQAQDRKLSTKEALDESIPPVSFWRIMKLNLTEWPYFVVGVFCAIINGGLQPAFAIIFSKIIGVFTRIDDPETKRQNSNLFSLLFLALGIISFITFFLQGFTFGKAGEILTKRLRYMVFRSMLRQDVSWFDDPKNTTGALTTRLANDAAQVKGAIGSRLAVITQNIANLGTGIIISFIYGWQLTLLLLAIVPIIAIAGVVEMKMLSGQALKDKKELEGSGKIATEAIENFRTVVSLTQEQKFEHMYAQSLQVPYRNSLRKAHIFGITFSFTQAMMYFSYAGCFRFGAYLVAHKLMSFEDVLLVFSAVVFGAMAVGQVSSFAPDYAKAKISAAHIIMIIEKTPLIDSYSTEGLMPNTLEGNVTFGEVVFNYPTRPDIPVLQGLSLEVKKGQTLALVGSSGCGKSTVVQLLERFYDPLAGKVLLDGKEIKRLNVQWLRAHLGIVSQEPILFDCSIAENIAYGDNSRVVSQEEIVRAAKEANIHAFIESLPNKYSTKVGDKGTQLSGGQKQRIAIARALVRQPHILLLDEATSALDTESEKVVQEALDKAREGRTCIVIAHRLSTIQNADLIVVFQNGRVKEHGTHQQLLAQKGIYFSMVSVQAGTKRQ
Chain of sigma-2 receptors (Q5BJF2 whole entry): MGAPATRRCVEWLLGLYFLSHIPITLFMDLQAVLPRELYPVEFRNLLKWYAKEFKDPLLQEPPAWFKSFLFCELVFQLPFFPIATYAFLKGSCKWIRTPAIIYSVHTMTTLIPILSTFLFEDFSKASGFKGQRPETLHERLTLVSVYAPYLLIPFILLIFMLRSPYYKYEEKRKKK

Compound | Mitochondrial depolarization (JC-1 staining) (MCF7 cells [1]) | Mitochondrial depolarization (JC-1 staining) (A549 cells [2]) | Rank order of caspase 9 activation (caspase 9 in MCF7 cells) | EC50 (MCF7 [3]) | Ki (sigma-2 receptors) | Mitochondrial ROS (MitoSOX) (MCF7 cells [4]) | Mitochondrial ROS (MitoSOX) (A549 cells [5]) | ROS levels in whole cells (DCFDA-AM) (MCF7 and A549 cells) | Expression of ER stress markers GRP78, ATF6, IRE1, PERK [6] | EC50 (MCF10A) | EC50 (BEAS-2B) | EC50 (P-gp) | EC50 (A549 [7]) | EC50 (A549 [8]) | EC50 (MCF7 [9]) | P-gp Activity EC50 (P-gp)
COc1cc2c(cc1OC)CN(CCCCN1C(=O)/C(=N\NC(=S)N(C)C)c3ccccc31)CC2 [MLP44, (Z)-2-(1-(4-(6,7-Dimethoxy-3,4-dihydroisoquinolin-2(1H)-yl)butyl)-2-oxoindolin-3-ylidene)-N,N-dimethylhydrazinecarbothioamide] | strong depolarization | totally insensitive | FA4 > MLP44 > PS3 > ACThio1 | 24.6 µM | 0.0341 µM | increased | increased | variable | modest effects | 24.2 ± 0.8 µM | 11.9 ± 2.1 µM | 3.04 µM | 10.4 µM |  |  | 
CN(C)C(=S)N/N=C1\C(=O)Nc2ccccc21 [ACThio1, (Z)-N,N-dimethyl-2-(2-oxoindolin-3-ylidene)hydrazinecarbothioamide] | did not produce any detectable changes in mitochondrial polarization | did not produce any detectable changes in mitochondrial polarization | FA4 > MLP44 > PS3 > ACThio1 |  | > 10 µM |  |  | not significantly increased | no or negligible effect | 2.09 ± 0.4 µM | 3.39 ± 0.8 µM |  |  | 4.08 ± 0.4 µM | 5.88 ± 1.1 µM | Not Active^d
CN(C)C(=S)N/N=C1\C(=O)N(CCCCN2CCN(C3CCCCC3)CC2)c2ccccc21 [PS3, (Z)-2-[1-[4-(4-cyclohexylpiperazin-1-yl)butyl]-2-oxoindolin-3-ylidene]-N,N-dimethylhydrazinecarbothioamide] | did not produce any detectable changes in mitochondrial polarization | did not produce any detectable changes in mitochondrial polarization | FA4 > MLP44 > PS3 > ACThio1 | 1.81 µM | 0.0354 µM |  |  | not significantly increased | modest effects | 3.03 ± 0.6 µM | 6.22 ± 1.3 µM | 2.83 µM | 2.2 µM |  |  | 
